Structures can show the parent of a compound that is named as a salt.
Experiments:
[1] = test system: gastric injury induced by ethanol; assay: Gastric ulcers induced by absolute ethanol in rats; assay type: in vivo, Sprague-Dawley derived male rats; details: for Average (gastric ulceration score 0-4): 30 min before absolute ethanol 1 ml/rat, scored 1 h later, 5 rats
Source text: The purpose of this study was to investigate the effect of MIC31 (Citronellol) and its analogues/derivatives on gastric injury induced by ethanol in the rat. Gastric damage was produced by oral administration of absolute ethanol to rats. The severity of the ethanol-induced gastric damage varied considerably within the vehicle-treated group of rats which served as the negative controls.
Animals studied in this example were Sprague-Dawley derived Male Rats from Yung-Min Medical University Laboratory Animal Center. The age of these rats are 7 weeks old. Each group has 5 rats, and their body weight at arrival was 180±10 gm. Upon arrival, heath status of rats will undergo a minimum of one week acclimation period prior to the start of the experiment. At the first day of study, body weights are measured and the animals are grouped according to experiment design. The environmental conditions are listed below:
(10 ml/kg) to a group of 5 Sprague-Dawley derived male rats overnight fasted weighing 180±10 gm at 30 minutes before absolute ethanol challenge (1 ml/rat, P.O.). One hour later, the animals are sacrificed and the stomachs are opened along the greater curvature. Gastric ulceration is scored for degree of hemorrhage and severity of ulcerative lesions as follows: 0=no hyperemia or lesion […], 1=hyperemia, 2=one or two slight lesions, 3=more than two slight lesions, 4=more than two lesions or severe lesions. Reduction of concurrent control score values by 50 percent or more (≧50%) is considered significant. During the experimental phase, body weight will be documented.

[2] = test system: Helicobacter pylori-induced ulcers; assay: Helicobacter pylori-induced gastric ulceration in mice; assay type: in vivo, male CD-1 (Crl.) derived mice; details: for Ulceration Score Total: N=5 mice, day 8
Protocol: MIC-31 (Citronellol) and MIC-32 (Geraniol) were evaluated for their abilities to protect mice from the Helicobacter pylori-induced ulcers. MIC-31 was dosed at 50, 25, 12.5 and 6.25 mg/kg, P.O., as well as at 25 and 12.5 mg/kg, I.P. MIC-32 was dosed at 25 and 12.5 mg/kg, P.O. These dosing regimes were administered twice daily for 7 consecutive days beginning with the first dose given at one hour after Helicobacter pylori inoculation. On day 8, Gastric ulceration was scored as 0, 1, 2 or 3 (3 being most severe relative to vehicle control) according to the degree of hemorrhage and severity of lesions on the gastric mucosa. MIC-31 and MIC-32 were dissolved in 2% Tween 80 for oral (P.O.) and in 2% Tween 80/0.9% NaCl for intraperitoneal (I.P.) administration. MIC-31 at doses of 50, 25, 12.5, 6.25 mg/kg (P.O.) and 25, 12.5 mg/kg (I.P.), as well as MIC-32 at 25 and 12.5 mg/kg (P.O.), were administered to test animals twice daily for 7 consecutive days. The dosing volume was 10 ml/kg. Male CD-1 (Crl.) derived mice weighing 24±2 g were provided. Space allocation for 10 animals was 29×18×13 cm. Mice were housed in cages and maintained in a controlled temperature (22° C.-23° C.) and humidity (70%-80%) environment with 12 hours light dark cycles for at least one week prior to use. Free access to standard lab chow for mice and tap water was granted. Groups of 5 male CD-1 (Crl.) derived mice weighing 24±2 g, were fasted for 18 hours prior to intragastric inoculation of Helicobacter pylori in suspension at 9.5×10^9 CFU/0.4 ml/mouse. […] MIC-31 was also dosed intraperitoneally at 25 mg/kg and 12.5 mg/kg, starting also one hour after the Helicobacter pylori inoculation, twice daily for 7 consecutive days. Omeprazole 1 mg/kg and Clarithromycin 10 mg/kg, in combination, were used as positive controls and administered orally to test animals once daily for 7 consecutive days under the same treatment regime. Eight days after infection, all animals were fasted overnight and sacrificed. Each stomach was dissected along the greater curvature. Gastric ulceration was scored at four levels according to the degree of hemorrhage and severity of ulcerative lesions: 0=normal appearance, 1=mild red spots, 2=moderate red spots and/or hemorrhage spots, 3=marked hemorrhage spots. Reduction of ulceration score by 50 percent or more (≧50%) relative to vehicle control score values is considered significant. In addition, blood of each animal was collected from the retro-orbital sinus on day 8 and plasma sample was kept frozen at −80° C. until returned to the sponsor. Tissues of stomach and intestines were removed by surgical excision and immersed in 10% Neutral-Buffer formalin for histopathological examination.

[3] = Rattus norvegicus, po, 1 h, 30 mg/kg P.O., 30 min before absolute ethanol, >=50% considered significant, read-out: Reduction (%) of ulceration score vs concurrent vehicle control
[4] = Rattus norvegicus, po, 1 h, 100 mg/kg P.O., 30 min before absolute ethanol, >=50% considered significant, read-out: Reduction (%) of ulceration score vs concurrent vehicle control
[5] = Rattus norvegicus, po, 1 h, 300 mg/kg P.O., 30 min before absolute ethanol, >=50% considered significant, read-out: Reduction (%) of ulceration score vs concurrent vehicle control
[6] = 30 mg/kg P.O., 30 min before absolute ethanol, >=50% considered significant
[7] = 100 mg/kg P.O., 30 min before absolute ethanol, >=50% considered significant
[8] = 300 mg/kg P.O., 30 min before absolute ethanol, >=50% considered significant
[9] = PO 12.5 mg/kg x 2 x 7 days, score 0-3 each
[10] = PO 25 mg/kg x 2 x 7 days, score 0-3 each

For COc1ccc2[nH]c([S+]([O-])Cc3ncc(C)c(OC)c3C)nc2c1 (stereo not shown) [Omeprazole, reference compound], the “Average (gastric ulceration score 0-4)” value ([1]; 50 mg/kg P.O.) was 2.2 and the inhibition in vivo at 50 mg/kg ([1]; Rattus norvegicus, po, 1 h, 50 mg/kg P.O., 30 min before absolute ethanol, >=50% considered significant, read-out: Reduction (%) of ulceration score vs concurrent vehicle control) was 39%.
In the case of CC(C)=CCC[C@@H](C)CCBr [MIC-43, (R)-(−)-Citronellyl bromide], the “Average (gastric ulceration score 0-4)” value ([1]; 30 mg/kg P.O.) is reported as 2.4, the “Average (gastric ulceration score 0-4)” value ([1]; 100 mg/kg P.O.) is reported as 1.6 and the “Average (gastric ulceration score 0-4)” value ([1]; 300 mg/kg P.O.) is reported as 1.6. It also gave an inhibition in vivo at 30 mg/kg [1, 3] of 29%, an inhibition in vivo at 100 mg/kg [1, 4] of 53% and an inhibition in vivo at 300 mg/kg [1, 5] of 53%.
In the case of CC(C)=CCCC(C)CCO (stereo not drawn) [MIC-45, (−)-β-Citronellol], the “Average (gastric ulceration score 0-4)” value ([1]; 30 mg/kg P.O.) is reported as 2.6, the “Reduction (%) of ulceration score vs concurrent vehicle control” value (“Reduction (%) of ulceration score” for short) [1, 6] is reported as 28% and the “Average (gastric ulceration score 0-4)” value ([1]; 100 mg/kg P.O.) is reported as 1.2. The “Reduction (%) of ulceration score” value [1, 7] was 67%, the “Average (gastric ulceration score 0-4)” value ([1]; 300 mg/kg P.O.) was 1.6 and the “Reduction (%) of ulceration score” value [1, 8] was 83%.
For CC(C)=CCCC(C)CCO (stereo not shown) [MIC-42, Citronellol], the “Average (gastric ulceration score 0-4)” value ([1]; 30 mg/kg P.O.) was 1.6, the “Reduction (%) of ulceration score” value [1, 6] was 53% and the “Average (gastric ulceration score 0-4)” value ([1]; 100 mg/kg P.O.) was 0.8. For the same compound, the “Reduction (%) of ulceration score” value [1, 7] was 76%, the “Average (gastric ulceration score 0-4)” value ([1]; 300 mg/kg P.O.) was 1.6 and the “Reduction (%) of ulceration score” value [1, 8] was 53%.
For CC(C)=CCCC(C)CC(=O)O (stereo not shown) [MIC-35, Citronellic acid], the “Average (gastric ulceration score 0-4)” value ([1]; 30 mg/kg P.O.) was 2, the “Average (gastric ulceration score 0-4)” value ([1]; 100 mg/kg P.O.) was 1.6, and the “Average (gastric ulceration score 0-4)” value ([1]; 300 mg/kg P.O.) was 1.4. The inhibition in vivo at 30 mg/kg [1, 3] was 38%, the inhibition in vivo at 100 mg/kg [1, 4] was 50% and the inhibition in vivo at 300 mg/kg [1, 5] was 56%.
With CC(C)=CCC[C@H](C)CCBr [MIC-36, (s)-(+)-Citronellyl bromide] the “Average (gastric ulceration score 0-4)” value ([1]; 30 mg/kg P.O.) was 2, the “Average (gastric ulceration score 0-4)” value ([1]; 100 mg/kg P.O.) was 1.4 and the “Average (gastric ulceration score 0-4)” value ([1]; 300 mg/kg P.O.) was 1.6. For the same compound, the inhibition in vivo at 30 mg/kg [1, 3] was 33%, the inhibition in vivo at 100 mg/kg [1, 4] was 53% and the inhibition in vivo at 300 mg/kg [1, 5] was 47%.
C/C=C(\C)C(=O)OCCC(C)CCC=C(C)C (stereo not shown) [MIC-44, Citronellyl tiglate] was tested, and the “Average (gastric ulceration score 0-4)” value ([1]; 30 mg/kg P.O.) was 2.8, the “Average (gastric ulceration score 0-4)” value ([1]; 100 mg/kg P.O.) was 1.8 and the “Average (gastric ulceration score 0-4)” value ([1]; 300 mg/kg P.O.) was 2.2. The inhibition in vivo at 30 mg/kg [1, 3] was 22%, the inhibition in vivo at 100 mg/kg [1, 4] was 50% and the inhibition in vivo at 300 mg/kg [1, 5] was 39%.
For CC(=O)OCCC(C)CCC=C(C)C (stereo not shown) [MIC-39, Citronellyl acetate], the “Average (gastric ulceration score 0-4)” value ([1]; 30 mg/kg P.O.) was 2.4, the “Average (gastric ulceration score 0-4)” value ([1]; 100 mg/kg P.O.) was 0.8 and the “Average (gastric ulceration score 0-4)” value ([1]; 300 mg/kg P.O.) was 0.8. It also gave an inhibition in vivo at 30 mg/kg [1, 3] of 20%, an inhibition in vivo at 100 mg/kg [1, 4] of 73% and an inhibition in vivo at 300 mg/kg [1, 5] of 73%.
In the case of CCC(=O)OCCC(C)CCC=C(C)C (stereo not shown) [MIC-40, Citronellyl propionate], the “Average (gastric ulceration score 0-4)” value ([1]; 30 mg/kg P.O.) is reported as 3.4, the “Average (gastric ulceration score 0-4)” value ([1]; 100 mg/kg P.O.) is reported as 2.8 and the “Average (gastric ulceration score 0-4)” value ([1]; 300 mg/kg P.O.) is reported as 1.2. The inhibition in vivo at 30 mg/kg [1, 3] was 6%, the inhibition in vivo at 100 mg/kg [1, 4] was 22% and the inhibition in vivo at 300 mg/kg [1, 5] was 67%.
In the case of CC(C)=CCC/C(C)=C/CO [MIC-32, Geraniol], the “Ulceration Score Total” value [2, 9] is reported as 13, the “% Inhibition of ulceration score vs vehicle” value (from here on “% Inhibition”) ([2]; PO 12.5 mg/kg x 2 x 7 days, >=50% significant (in parentheses)) is reported as 13% and the “Ulceration Score Total” value [2, 10] is reported as 11. For the same compound, the “% Inhibition” value ([2]; PO 25 mg/kg x 2 x 7 days, >=50% significant (in parentheses)) was 27%.
In the case of CC(C)=CCCC(C)CCOC(=O)C(C)C (stereo not shown) [MIC-38, Citronellyl isobutryrate], the “Average (gastric ulceration score 0-4)” value ([1]; 30 mg/kg P.O.) is reported as 3.2, the “Reduction (%) of ulceration score” value [1, 6] is reported as 0% and the “Average (gastric ulceration score 0-4)” value ([1]; 100 mg/kg P.O.) is reported as 1.8. The “Reduction (%) of ulceration score” value [1, 7] was 40%, the “Average (gastric ulceration score 0-4)” value ([1]; 300 mg/kg P.O.) was 1.2 and the “Reduction (%) of ulceration score” value [1, 8] was 60%.
With CC(C)=CCCC(C)CCO (stereo not shown) [MIC-31, Citronellol] the “Average (gastric ulceration score 0-4)” value ([1]; 30 mg/kg P.O.) was 1, the “Reduction (%) of ulceration score” value [1, 6] was 72% and the “Average (gastric ulceration score 0-4)” value ([1]; 100 mg/kg P.O.) was 0.4. For the same compound, the “Reduction (%) of ulceration score” value [1, 7] was 89%, the “Protecting effect on stomach after challenge with absolute ethanol (in words)” value ([1]; single oral dose 30 min before alcohol challenge, rats) was “can inhibit the severity degree of hemorrhage and ulcerative lesions in stomach” and the “Ulceration Score Total” value ([2]; IP 12.5 mg/kg x 2 x 7 days) was 2. The “Ulceration Score Total” value ([2]; IP 25 mg/kg x 2 x 7 days) was 8, the “% Inhibition” value ([2]; IP 25 mg/kg x 2 x 7 days, >=50% significant) was 47% and the “Ulceration Score Total” value ([2]; PO 6.25 mg/kg x 2 x 7 days, score 0-3 each) was 11. The “% Inhibition” value ([2]; PO 6.25 mg/kg x 2 x 7 days, >=50% significant (in parentheses)) was 27%, the “Ulceration Score Total” value [2, 9] was 7 and the “Ulceration Score Total” value [2, 10] was 3. The “Ulceration Score Total” value ([2]; PO 50 mg/kg x 2 x 7 days, score 0-3 each) was 2.
With CC(C)=CCCC(C)CCOC=O (stereo not shown) [MIC-41, Citronellyl formate] the “Average (gastric ulceration score 0-4)” value ([1]; 30 mg/kg P.O.) was 3.2, the “Average (gastric ulceration score 0-4)” value ([1]; 100 mg/kg P.O.) was 1 and the “Average (gastric ulceration score 0-4)” value ([1]; 300 mg/kg P.O.) was 1.4. The inhibition in vivo at 30 mg/kg [1, 3] was 0%, the inhibition in vivo at 100 mg/kg [1, 4] was 69% and the inhibition in vivo at 300 mg/kg [1, 5] was 56%.
